Measurements as given in patent publication US20040116505A1, “Treatment of tics, tremors and related disorders” (priority 2001, published 2004).

Assays:
[1] = system: patients suffering from tics; assay: Study in five patients suffering from tics who failed standard drug therapies; type: in vivo, human; details: five patients non-responsive to standard tic therapies; 250 mg BID or 500 mg BID to 1500 mg BID
Method: Patients received either Low (250 mg BID) or standard doses (500 mg BID to 1500 mg BID) of levetiracetam.

[2] = in vivo; cited from earlier work
[3] = cited from earlier work

Compound: CC[C@@H](C(N)=O)N1CCCC1=O [levetiracetam, (S)-2-(2-Oxo-pyrrolidin-1-yl)-butyramide]
- reduction of tic symptoms [1]: majority of patients experienced a reduction of tic symptoms
- side effects [2]: minimal side effects
- levetiracetam excreted unchanged or as an inactive metabolite ([3]; in vivo): 90%
- oral bioavailability ([3]; oral): ~100%
